In patent publication US9920030B2 (priority 2006, dated 2018):
Where two headings read alike, the source gives them in different places.

Key:
Assay type in all cases: in vivo
[1] = tested on: Phytophthora infestans (the causal agent of tomato late blight); assay: whole plant or invertebrate; settings: for pest or weed control at 40 ppm / pest or weed control at 10 µg/mL: Phytophthora infestans, 96 h, read-out: Percent Disease Control, Test C
[2] = tested on: Phytophthora infestans (the causal agent of tomato late blight); assay: whole plant or invertebrate; settings: for pest or weed control at 40 ppm / pest or weed control at 10 µg/mL: Phytophthora infestans, 144 h, read-out: Percent Disease Control, Test B
[3] = tested on: Plasmopara vilicola (the causal agent of grape downy mildew); assay: Test A: grape downy mildew, test suspension sprayed on grape seedlings after inoculation, visual disease rating; settings: for pest or weed control at 40 ppm / pest or weed control at 10 µg/mL: Plasmopara, 144 h, read-out: Percent Disease Control, Test A
From the text: General protocol for preparing test suspensions for Test A-C: The test compounds were first dissolved in acetone in an amount equal to 3% of the final volume and then suspended at the desired concentration (in ppm) in acetone and purified water (50/50 mix by volume) containing 250 ppm of the surfactant Trem® 014 (polyhydric alcohol esters). The resulting test suspensions were then used in Tests A-C. Spraying a 200 ppm test suspension to the point of run-off on the test plants was equivalent to a rate of 500 g/ha.
Grape seedlings were inoculated with a spore suspension of Plasmopara vilicola (the causal agent of grape downy mildew) and incubated in a saturated atmosphere at 20° C. for 24 h. After a short drying period, the test suspension was sprayed to the point of run-off on the grape seedlings, which were then moved to a growth chamber at 20° C. for 5 days, after which time the grape seedling were placed back into a saturated atmosphere at 20° C. for 24 h. Upon removal, visual disease ratings were made.
Results for Tests A-C are given in Table A. In the table, a rating of 100 indicates 100% disease control and a rating of 0 indicates no disease control (relative to the controls). A dash (-) indicates no test results.

[4] = compounds without asterisk (application rate not given), 100 = 100% disease control, 0 = no control relative to the controls

Row | Compound | Percent Disease Control, Test C [1, 4] [%] | Percent Disease Control, Test B [2, 4] [%] | Percent Disease Control, Test A [3, 4] [%] | further results
1 | 1-[4-[4-(4,5-dihydro-5-(2-pyridinyl)-3-isoxazolyl)-2-thiazolyl]-1-piperidinyl]-2-[5-methyl-3-(trifluoromethyl)-1H-pyrazol-1-yl]ethanone [Compound 98] | 99 | 100 | 99 | –
2 | 1-[4-[4-(4,5-dihydro-5-phenyl-3-isoxazolyl)-2-thiazolyl]-3,6-dihydro-1(2H)-pyridinyl]-2-[5-methyl-3-(trifluoromethyl)-1H-pyrazol-1 yl]ethanone [Compound 217] | 86 | 95 | 0 | –
3 | 1-[4-[4-[5-(2-chlorophenyl)-4,5-dihydro-3-isoxazolyl]-2-thiazolyl]-1-piperidinyl]-2-[5-methyl-3-(trifluoromethyl)-1H-pyrazol-1-yl]ethanone [Compound 8] | 99 | 100 | 96 | –
4 | 1-[4-[4-[(5R)-4,5-dihydro-5-phenyl-3-isoxazolyl]-2-thiazolyl]-1-piperidinyl]-2-[5-methyl-3-(trifluoromethyl)-1H-pyrazol-1-yl]ethanone [Compound 3] | 0 | 47 | 52 | –
5 | 2-[5-chloro-3-(trifluoromethyl)-1H-pyrazol-1-yl]-1-[4-[4-(4,5-dihydro-5-phenyl-3-isoxazolyl)-2-thiazolyl]-1-piperidinyl]ethanone [Compound 107] | 99 | 100 | 97 | –
6 | Cc1cc(C(F)(F)F)nn1CC(=O)N1CCC(c2nc(C3=NOC4(CCCCC4c4ccccc4)C3)cs2)CC1 (mixture of isomers) [Compound 170] | – | – | – | Percent Disease Control, Test C ([1]; * tested at 40 ppm): 93%; Percent Disease Control, Test B ([2]; * tested at 40 ppm): 100%; Percent Disease Control, Test A ([3]; * tested at 40 ppm): 99%
7 | Cc1cc(C(F)(F)F)nn1CC(=O)N1CCC(c2nc(C3=NOC4(CCCC(c5ccccc5)C4)C3)cs2)CC1 (mixture of isomers) [Compound 171] | – | – | – | Percent Disease Control, Test C ([1]; * tested at 40 ppm): 98%; Percent Disease Control, Test B ([2]; * tested at 40 ppm): 100%; Percent Disease Control, Test A ([3]; * tested at 40 ppm): 99%
8 | Cc1cc(C(F)(F)F)nn1CC(=O)N1CCC(c2nc(C3=NOC(c4cccc(Cl)c4)C3)cs2)CC1 (racemic) [Compound 17] | – | – | – | Percent Disease Control, Test C ([1]; * tested at 40 ppm): 99%; Percent Disease Control, Test B ([2]; * tested at 40 ppm): 99%; Percent Disease Control, Test A ([3]; * tested at 40 ppm): 100%
9 | Cc1cc(C(F)(F)F)nn1CC(=O)N1CCC(c2nc(C3=NOC(Cc4ccccc4)C3)cs2)CC1 (racemic) [Compound 24] | 93 | 100 | 99 | –
10 | Cc1cc(C(F)(F)F)nn1CC(=O)N1CCC(c2nc(C3=NOC(CCC(C)C)C3)cs2)CC1 (racemic) [Compound 27] | 98 | 100 | 100 | –
11 | Cc1cc(C(F)(F)F)nn1CC(=O)N1CCC(c2nc(C3=NOC(CC(C)(C)C)C3)cs2)CC1 (racemic) [Compound 28] | 94 | 100 | 99 | –
12 | Cc1cc(C(F)(F)F)nn1CC(=O)N1CCC(c2nc(C3=NO[C@@H](N4C(=O)c5ccccc5C4=O)C3)cs2)CC1 (racemic) [Compound 129] | – | – | – | Percent Disease Control, Test C ([1]; * tested at 40 ppm): 99%; Percent Disease Control, Test B ([2]; * tested at 40 ppm): 100%; Percent Disease Control, Test A ([3]; * tested at 40 ppm): 99%
13 | Cc1cc(C(F)(F)F)nn1CC(=O)N1CCC(c2nc(C3=NO[C@@H](c4c(Cl)cccc4Cl)C3)cs2)CC1 (racemic) [Compound 135, 1-[4-[4-[(5R)-5-(2,6-dichlorophenyl)-4,5-dihydro-3-isoxazolyl]-2-thiazolyl]-1-piperidinyl]-2-[5-methyl-3-(trifluoromethyl)-1H-pyrazol-1-yl]ethanone] | – | – | – | pest or weed control at 40 ppm [1]: 99%; pest or weed control at 40 ppm [2]: 100%; pest or weed control at 40 ppm ([3]; * tested at 40 ppm): 100%
14 | COc1cc(OC)c([C@H]2CC(c3csc(C4CCN(C(=O)Cn5nc(C(F)(F)F)cc5C)CC4)n3)=NO2)c(OC)c1 (racemic) [Compound 155, 1-[4-[4-[(5R)-4,5-dihydro-5-(2,4,6-trimethoxyphenyl)-3-isoxazolyl]-2-thiazolyl]-1-piperidinyl]-2-[5-methyl-3-(trifluoromethyl)-1H-pyrazol-1-yl]ethanone] | – | – | – | pest or weed control at 40 ppm [1]: 99%; pest or weed control at 40 ppm [2]: 100%; pest or weed control at 40 ppm ([3]; * tested at 40 ppm): 100%
15 | Cc1cc(C)n(CC(=O)N2CCC(c3nc(C4=NO[C@]5(CCCc6ccccc65)C4)cs3)CC2)n1 (racemic) [Compound 164, 1-[4-[4-[(1′R)-3′,4′-dihydrospiro[isoxazole-5(4H),1′(2′H)-naphthalen]-3-yl]-2-thiazolyl]-1-piperidinyl]-2-(3,5-dimethyl-1H-pyrazol-1-yl)ethanone] | – | – | – | pest or weed control at 10 µg/mL [1]: 99%; pest or weed control at 10 µg/mL [2]: 100%; pest or weed control at 10 µg/mL ([3]; ** tested at l0 ppm): 99%
16 | O=C(Cn1nc(C(F)(F)F)cc1C(F)(F)F)N1CCC(c2nc(C3=NO[C@]4(CCCc5ccccc54)C3)cs2)CC1 (racemic) [Compound 229, 2-[3,5-bis(trifluoromethyl)-1H-pyrazol-1-yl]-1-[4-[4-[(1′R)-3′,4′-dihydrospiro[isoxazole-5(4H), 1′(2′H)-naphthalen]-3-yl]-2-thiazolyl]-1-piperidinyl]ethanone] | – | – | – | pest or weed control at 10 µg/mL [1]: 100%; pest or weed control at 10 µg/mL [2]: 100%; pest or weed control at 10 µg/mL ([3]; ** tested at l0 ppm): 100%
17 | O=C(Cn1nc(C(F)(F)F)cc1Cl)N1CCC(c2nc(C3=NO[C@]4(CCCc5ccccc54)C3)cs2)CC1 (racemic) [Compound 230, 2-[5-chloro-3-(trifluoromethyl)-1H-pyrazol-1-yl]-1-[4-[4-[(1′R)-3′,4′-dihydrospiro[isoxazole-5(4H), 1′(2′H)-naphthalen]-3-yl]-2-thiazolyl]-1-piperidinyl]ethanone] | – | – | – | pest or weed control at 10 µg/mL [1]: 100%; pest or weed control at 10 µg/mL [2]: 100%; pest or weed control at 10 µg/mL ([3]; ** tested at l0 ppm): 100%
18 | O=C(Cn1nc(C(F)(F)F)cc1C(F)(F)F)N1CCC(c2nc(C3=NO[C@]4(CCc5ccccc54)C3)cs2)CC1 (racemic) [Compound 231, 2-[3,5-bis(trifluoromethyl)-1H-pyrazol-1-yl]-1-[4-[4-[(1R)-2,3-dihydrospiro[1H-indene-1,5′(4′1H)-isoxazol]-3′-yl]-2-thiazolyl]-1-piperidinyl]ethanone] | – | – | – | Percent Disease Control, Test C ([1]; ** tested at l0 ppm): 100%; Percent Disease Control, Test B ([2]; ** tested at l0 ppm): 100%; Percent Disease Control, Test A ([3]; ** tested at l0 ppm): 100%
19 | C[C@]1(c2ccccc2)CC(c2csc(C3CCN(C(=O)Cn4nc(C(F)(F)F)cc4Cl)CC3)n2)=NO1 (racemic) [Compound 261, 2-[5-chloro-3-(trifluoromethyl)-1H-pyrazol-1-yl]-1-[4-[4-[(5R)-4,5-dihydro-5-methyl-5-phenyl-3-isoxazolyl]-2-thiazolyl]-1-piperidinyl]ethanone] | – | – | – | pest or weed control at 10 µg/mL [1]: 93%; pest or weed control at 10 µg/mL [2]: 100%; pest or weed control at 10 µg/mL ([3]; ** tested at l0 ppm): 100%
20 | Cc1cccc(-c2csc(C3CCN(C(=O)Cn4nc(C(F)(F)F)cc4C)CC3)n2)c1 [Compound 149] | – | 97 | 99 | –
21 | COc1ccc(-c2csc(C3CCN(C(=O)Cn4nc(C(F)(F)F)cc4C)CC3)n2)cc1 [Compound 150] | – | 100 | 99 | –
22 | Cc1ccc(-c2csc(C3CCN(C(=O)Cn4nc(C(F)(F)F)cc4C)CC3)n2)cc1 [Compound 151] | – | 99 | 100 | –
23 | COc1cccc(-c2csc(C3CCN(C(=O)Cn4nc(C(F)(F)F)cc4C)CC3)n2)c1 [Compound 152] | – | 89 | 91 | –
24 | COc1ccccc1-c1csc(C2CCN(C(=O)Cn3nc(C(F)(F)F)cc3C)CC2)n1 [Compound 153] | – | 0 | 73 | –
